Assay results from ChEMBL document CHEMBL4043296 (J Med Chem, 2018).
pKi: −log10 of the molar value.

How the values were obtained:
D(4) dopamine receptor = target: T1, D(4) dopamine receptor (Homo sapiens, UniProt P21917); experiment: Displacement of [3H]N-methylspiperone from human dopamine D4 receptor expressed in HEK293 cell membranes after 1 hr by scintillation counting method
T1 sequence (P21917 whole entry): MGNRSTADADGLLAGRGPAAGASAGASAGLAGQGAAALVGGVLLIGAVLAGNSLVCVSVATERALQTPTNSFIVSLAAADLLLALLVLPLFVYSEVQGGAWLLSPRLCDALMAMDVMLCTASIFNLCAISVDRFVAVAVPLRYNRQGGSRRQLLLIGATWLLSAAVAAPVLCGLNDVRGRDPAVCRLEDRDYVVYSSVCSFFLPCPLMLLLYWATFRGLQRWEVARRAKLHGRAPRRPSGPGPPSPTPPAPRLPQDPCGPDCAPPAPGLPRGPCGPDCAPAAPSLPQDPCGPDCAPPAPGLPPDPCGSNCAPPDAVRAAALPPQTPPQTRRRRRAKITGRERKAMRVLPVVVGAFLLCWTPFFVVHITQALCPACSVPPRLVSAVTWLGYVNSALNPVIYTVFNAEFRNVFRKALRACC

Homo sapiens = species: Homo sapiens; experiment: Selectivity ratio of Ki for human dopamine D2 receptor to Ki for human dopamine D4 receptor
D(2) dopamine receptor = D(2) dopamine receptor (Homo sapiens, UniProt P14416); experiment: Displacement of [3H]N-methylspiperone from human dopamine D2 receptor expressed in HEK293 cell membranes after 1 hr by scintillation counting method
D(3) dopamine receptor = D(3) dopamine receptor (Homo sapiens, UniProt P35462); experiment: Displacement of [3H]N-methylspiperone from human dopamine D3 receptor expressed in HEK293 cell membranes after 1 hr by scintillation counting method
Sequence of D(3) dopamine receptor (P35462 whole entry): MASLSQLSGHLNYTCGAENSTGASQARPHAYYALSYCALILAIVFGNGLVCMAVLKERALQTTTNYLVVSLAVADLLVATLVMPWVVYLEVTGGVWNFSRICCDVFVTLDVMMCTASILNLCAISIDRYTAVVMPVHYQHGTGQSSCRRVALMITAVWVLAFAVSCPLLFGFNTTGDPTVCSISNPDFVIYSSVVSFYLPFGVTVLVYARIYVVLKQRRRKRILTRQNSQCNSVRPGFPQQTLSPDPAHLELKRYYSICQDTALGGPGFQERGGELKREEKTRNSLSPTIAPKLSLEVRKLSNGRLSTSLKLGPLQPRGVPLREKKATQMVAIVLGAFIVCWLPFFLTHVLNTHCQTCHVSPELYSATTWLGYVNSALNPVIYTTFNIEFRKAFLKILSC

Sequence of D(2) dopamine receptor (P14416 whole entry): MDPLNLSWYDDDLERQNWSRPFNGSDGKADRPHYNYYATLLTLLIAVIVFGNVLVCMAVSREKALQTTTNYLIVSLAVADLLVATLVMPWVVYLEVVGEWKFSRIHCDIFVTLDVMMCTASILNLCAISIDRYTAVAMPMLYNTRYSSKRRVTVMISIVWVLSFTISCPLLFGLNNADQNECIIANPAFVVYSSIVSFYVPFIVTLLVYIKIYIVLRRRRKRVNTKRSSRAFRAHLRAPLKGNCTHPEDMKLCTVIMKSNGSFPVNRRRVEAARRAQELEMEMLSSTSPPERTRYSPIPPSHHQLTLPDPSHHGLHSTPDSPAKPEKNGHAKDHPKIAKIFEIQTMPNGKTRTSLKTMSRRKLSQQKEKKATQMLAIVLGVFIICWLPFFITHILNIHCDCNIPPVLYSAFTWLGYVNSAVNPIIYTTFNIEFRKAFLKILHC

pKi (D(4) dopamine receptor)	Ratio Ki (Homo sapiens)	pKi (D(2) dopamine receptor)	pKi (D(3) dopamine receptor)	SMILES
7.13	9	6.18	6.23	O=C1CCc2ccccc2N1CCCN1CCC(CCCO)CC1
7.00	9	6.03	6.02	O=C1CCc2ccccc2N1CCCN1CCC(CCCCCCCO)CC1

Second part, the compound before the results:

SMILES	pKi (D(4) dopamine receptor)	Ratio Ki (Homo sapiens)	pKi (D(2) dopamine receptor)	pKi (D(3) dopamine receptor)
COc1cccc(CCC2=NCCN2CCc2ccccc2)c1	7.02	> 105		
COc1ccc(Cl)cc1OC[C@@H]1CN(Cc2ccc(Cl)cc2)CCO1		48		
CC(C)Oc1cccnc1N(C)C1CCN(Cc2ccc(I)cc2)CC1		1720		
